Reference: ChEMBL document CHEMBL3885881, “DrugMatrix”

Organism: Rattus norvegicus
Experiment: DrugMatrix - Regimen: Daily Repeat
Format: toxicity, organism-based, Sprague-Dawley
Set-up: regimen Daily Repeat, gender Male, age 6-8 weeks
Settings: in vivo, po, route oral GAVAGE, vehicle 100 % WATER; for ABSOLUTE BASOPHIL / ABSOLUTE EOSINOPHIL / ABSOLUTE LYMPHOCYTE / ABSOLUTE MONOCYTE / ABSOLUTE SEGMENTED NEUTROPHIL / BASOPHIL / EOSINOPHIL / ERYTHROCYTE COUNT / HEMATOCRIT / HEMOGLOBIN / LEUKOCYTE COUNT / LYMPHOCYTE / MEAN CORPUSCULAR HEMOGLOBIN / MEAN CORPUSCULAR HEMOGLOBIN CONCENTRATION / MEAN CORPUSCULAR VOLUME / MONOCYTE / NEUTROPHIL / NUCLEATED RED BLOOD CELLS / PLATELET COUNT: tissue Blood; for ALANINE AMINOTRANSFERASE / ALBUMIN / ALKALINE PHOSPHATASE / ASPARTATE AMINOTRANSFERASE / BLOOD UREA NITROGEN / CARBON DIOXIDE / CHLORIDE / CHOLESTEROL / CREATINE PHOSPHOKINASE / CREATININE / GLUCOSE / LACTATE DEHYDROGENASE / LIPASE / PHOSPHORUS / SODIUM / TOTAL BILIRUBIN / TOTAL PROTEIN / URIC ACID: tissue Plasma
[1] = 0 mg/kg, 72 h, dose level Control, time 3 day
[2] = 0 mg/kg, 120 h, dose level Control, time 5 day
[3] = 200 mg/kg, 72 h, dose level Low, time 3 day

CC1(C)S[C@@H]2[C@H](NC(=O)[C@H](N)c3ccc(O)cc3)C(=O)N2[C@H]1C(=O)O [AMOXICILLIN]
ABSOLUTE BASOPHIL [1]: 0 CELLS/uL
ABSOLUTE EOSINOPHIL [1]: 25 CELLS/uL
ABSOLUTE LYMPHOCYTE [1]: 14357 CELLS/uL
ABSOLUTE MONOCYTE [1]: 456.33 CELLS/uL
ABSOLUTE SEGMENTED NEUTROPHIL [1]: 1461.67 CELLS/uL
BASOPHIL [1]: 0%
EOSINOPHIL [1]: 0.17%
ERYTHROCYTE COUNT [1]: 5.85 x10E6/uL
HEMATOCRIT [1]: 37.62%
HEMOGLOBIN [1]: 13.87 G/DL
LEUKOCYTE COUNT [1]: 16.3 x10E3/uL
LYMPHOCYTE [1]: 88%
MEAN CORPUSCULAR HEMOGLOBIN [1]: 23.68 pg
MEAN CORPUSCULAR HEMOGLOBIN CONCENTRATION [1]: 36.88 G/DL
MEAN CORPUSCULAR VOLUME [1]: 64.23 fL
MONOCYTE [1]: 2.83%
NEUTROPHIL [1]: 9%
NUCLEATED RED BLOOD CELLS [1]: 0 /100WBC
PLATELET COUNT [1]: 1125.33 x10E3/uL
ALANINE AMINOTRANSFERASE [1]: 49.67 u/L
ALBUMIN [1]: 4.23 G/DL
ALKALINE PHOSPHATASE [1]: 400.83 u/L
ASPARTATE AMINOTRANSFERASE [1]: 89.17 u/L
BLOOD UREA NITROGEN [1]: 16 mg/dL
CARBON DIOXIDE [1]: 31.83 mmol/L
CHLORIDE [1]: 99 MEQ/L
CHOLESTEROL [1]: 76 mg/dL
CREATINE PHOSPHOKINASE [1]: 777.67 u/L
CREATININE [1]: 0.22 mg/dL
GLUCOSE [1]: 158.33 mg/dL
LACTATE DEHYDROGENASE [1]: 186.17 u/L
LIPASE [1]: 9.33 u/L
PHOSPHORUS [1]: 12.95 mg/dL
SODIUM [1]: 141.53 MEQ/L
TOTAL BILIRUBIN [1]: 0.18 mg/dL
TOTAL PROTEIN [1]: 6.08 G/DL
URIC ACID [1]: 1.77 mg/dL
ABSOLUTE BASOPHIL [2]: 0 CELLS/uL
ABSOLUTE EOSINOPHIL [2]: 0 CELLS/uL
ABSOLUTE LYMPHOCYTE [2]: 8994.5 CELLS/uL
ABSOLUTE MONOCYTE [2]: 122.33 CELLS/uL
ABSOLUTE SEGMENTED NEUTROPHIL [2]: 666.5 CELLS/uL
BASOPHIL [2]: 0%
EOSINOPHIL [2]: 0%
ERYTHROCYTE COUNT [2]: 5.74 x10E6/uL
HEMATOCRIT [2]: 35.17%
HEMOGLOBIN [2]: 13.28 G/DL
LEUKOCYTE COUNT [2]: 9.78 x10E3/uL
LYMPHOCYTE [2]: 92.33%
MEAN CORPUSCULAR HEMOGLOBIN [2]: 23.15 pg
MEAN CORPUSCULAR HEMOGLOBIN CONCENTRATION [2]: 37.8 G/DL
MEAN CORPUSCULAR VOLUME [2]: 61.27 fL
MONOCYTE [2]: 1.33%
NEUTROPHIL [2]: 6.33%
NUCLEATED RED BLOOD CELLS [2]: 0 /100WBC
PLATELET COUNT [2]: 1117 x10E3/uL
ALANINE AMINOTRANSFERASE [2]: 47.83 u/L
ALBUMIN [2]: 4.33 G/DL
ALKALINE PHOSPHATASE [2]: 414.5 u/L
ASPARTATE AMINOTRANSFERASE [2]: 77.5 u/L
BLOOD UREA NITROGEN [2]: 17 mg/dL
CARBON DIOXIDE [2]: 32.33 mmol/L
CHLORIDE [2]: 99.33 MEQ/L
CHOLESTEROL [2]: 76.33 mg/dL
CREATINE PHOSPHOKINASE [2]: 363.67 u/L
CREATININE [2]: 0.25 mg/dL
GLUCOSE [2]: 173.5 mg/dL
LACTATE DEHYDROGENASE [2]: 129.33 u/L
LIPASE [2]: 9.17 u/L
PHOSPHORUS [2]: 11.52 mg/dL
SODIUM [2]: 143.85 MEQ/L
TOTAL BILIRUBIN [2]: 0.2 mg/dL
TOTAL PROTEIN [2]: 6.43 G/DL
URIC ACID [2]: 0.97 mg/dL
ABSOLUTE BASOPHIL [3]: 0 CELLS/uL
ABSOLUTE EOSINOPHIL [3]: 109.67 CELLS/uL
ABSOLUTE LYMPHOCYTE [3]: 14631 CELLS/uL
ABSOLUTE MONOCYTE [3]: 211.33 CELLS/uL
ABSOLUTE SEGMENTED NEUTROPHIL [3]: 914.67 CELLS/uL
BASOPHIL [3]: 0%
EOSINOPHIL [3]: 0.67%
ERYTHROCYTE COUNT [3]: 5.96 x10E6/uL
HEMATOCRIT [3]: 38.03%
HEMOGLOBIN [3]: 14 G/DL
LEUKOCYTE COUNT [3]: 15.87 x10E3/uL
LYMPHOCYTE [3]: 92.33%
MEAN CORPUSCULAR HEMOGLOBIN [3]: 23.53 pg
MEAN CORPUSCULAR HEMOGLOBIN CONCENTRATION [3]: 36.8 G/DL
MEAN CORPUSCULAR VOLUME [3]: 63.87 fL
MONOCYTE [3]: 1.33%
NEUTROPHIL [3]: 5.67%
NUCLEATED RED BLOOD CELLS [3]: 0 /100WBC
PLATELET COUNT [3]: 1509.33 x10E3/uL
ALANINE AMINOTRANSFERASE [3]: 49.33 u/L
ALBUMIN [3]: 4.4 G/DL
ALKALINE PHOSPHATASE [3]: 350 u/L
ASPARTATE AMINOTRANSFERASE [3]: 82.33 u/L
BLOOD UREA NITROGEN [3]: 15.33 mg/dL
CARBON DIOXIDE [3]: 31.33 mmol/L
CHLORIDE [3]: 99.33 MEQ/L
CHOLESTEROL [3]: 96.33 mg/dL
CREATINE PHOSPHOKINASE [3]: 449.67 u/L
CREATININE [3]: 0.21 mg/dL
GLUCOSE [3]: 146 mg/dL
LACTATE DEHYDROGENASE [3]: 163.67 u/L
LIPASE [3]: 10.33 u/L
PHOSPHORUS [3]: 11.9 mg/dL
SODIUM [3]: 142.1 MEQ/L
TOTAL BILIRUBIN [3]: 0.2 mg/dL
TOTAL PROTEIN [3]: 6.37 G/DL
URIC ACID [3]: 2.03 mg/dL
